Measurements published in patent US9133128B2, “Pyrazole derivatives as cannabinoid receptor 1 antagonists” (Research Triangle Institute, priority 2011, dated 2015).
Where two headings read alike, the source gives them in different places.

What was measured:
CB1 [1] = biological target: T1, CB1 (Homo sapiens, UniProt P21554); test: Radioligand displacement of [3H]SR141716 at CB1; format: binding
T1 construct: expressed in transfected cells; host or cells: CHO-K1 (membranes)

CB1 [2] = biological target: T1, CB1; test: Displacement of [3H]CP55940 in membranes of CHO-K1 cells over-expressing CB1; format: binding; conditions: for Binding Selectivity using CP55940 Displacement: CB2 Ki over CB1 Ki
CB2 = biological target: T2, CB2 (Homo sapiens, UniProt P34972); test: Displacement of [3H]CP55940 in membranes of CHO-K1 cells over-expressing CB2; format: binding
T2 construct: expressed in transfected cells; host or cells: CHO-K1 (membranes)
T2 sequence (P34972 whole entry): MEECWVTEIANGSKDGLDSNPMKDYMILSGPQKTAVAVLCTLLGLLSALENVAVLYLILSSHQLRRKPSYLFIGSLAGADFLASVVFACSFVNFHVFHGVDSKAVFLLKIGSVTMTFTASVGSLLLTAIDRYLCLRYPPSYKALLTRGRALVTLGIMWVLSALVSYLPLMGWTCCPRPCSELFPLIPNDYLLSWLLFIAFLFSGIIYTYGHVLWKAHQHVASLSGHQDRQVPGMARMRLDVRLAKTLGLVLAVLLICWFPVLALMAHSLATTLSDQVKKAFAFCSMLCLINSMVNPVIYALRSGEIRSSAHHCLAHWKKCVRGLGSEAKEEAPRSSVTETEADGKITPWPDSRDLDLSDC
Experimental: All compounds were characterized by H^1 NMR and evaluated using a calcium mobilization assay. Each compound was pharmacologically characterized using a functional fluorescent CB1 activated Gαq16-coupled intracellular calcium mobilization assay in CHO-K1 cells as has been previously described and apparent affinity (Ke) values were determined. See Zhang et al., J. Med. Chem. 2010, 53, 7048, which is incorporated herein by reference. Further characterization of select compounds was performed using radioligand displacement of [3H]1 and equilibrium dissociation constant (Ki) values were determined. Selectivity of these compounds at CB1 versus CB2 was also determined by obtaining Ki values at either receptor using displacement of [3H]CP55940 in membranes of CHO-K1 cells over-expressing either receptor. Data reported are average values from 3-6 measurements.
Select compounds were chosen for further study in radioligand displacement assays using radiolabeled rimonobant, SR141716 ([^3H]1). […] Selectivity against the CB2 receptor was determined by comparing the compound displacement of radiolabeled CP55940, which is a cannabinoid known to act as a full agonist at both CB1 and CB2 receptors. In general, tested compounds were selective for CB1 over CB2.

CB1 [3] = biological target: T1, CB1; test: CB1 activated Gαq16-coupled intracellular calcium mobilization assay in CHO-K1 cells (apparent affinity Ke); format: cell-based
MDCK-MDR = MDCK-MDR transport (apical to basal); format: in vitro ADME; conditions: Table 4
[4] = Table 4, read-out: Ki (nM) v. [3H] SR141716 at CB1
[5] = Table 4, read-out: Ki (nM) v. [3H] CP55940 at CB1
[6] = Table 4, read-out: Ki (nM) v. [3H] CP55940 at CB2
[7] = Table 4, calcium mobilization, read-out: Ke (nM) at CB1

T1 sequence (P21554 whole entry): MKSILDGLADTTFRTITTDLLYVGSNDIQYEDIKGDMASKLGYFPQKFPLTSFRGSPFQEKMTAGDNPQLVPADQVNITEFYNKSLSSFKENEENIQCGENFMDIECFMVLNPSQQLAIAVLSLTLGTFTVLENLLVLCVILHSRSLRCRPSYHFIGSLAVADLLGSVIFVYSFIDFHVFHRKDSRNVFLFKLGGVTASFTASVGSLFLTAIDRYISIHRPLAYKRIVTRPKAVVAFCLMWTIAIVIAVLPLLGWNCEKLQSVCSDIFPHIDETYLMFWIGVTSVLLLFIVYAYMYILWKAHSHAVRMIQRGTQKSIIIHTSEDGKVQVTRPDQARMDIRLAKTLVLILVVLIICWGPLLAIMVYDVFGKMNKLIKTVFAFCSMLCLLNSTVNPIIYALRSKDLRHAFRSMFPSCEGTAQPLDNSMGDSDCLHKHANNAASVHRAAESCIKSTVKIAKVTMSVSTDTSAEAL

Structure (SMILES)	Ki (CB1 [1]; [4])	Binding Selectivity using CP55940 Displacement (CB1 [2]; Table 4)	Ki (CB1 [2]; [5])	Ki (CB2; [6])	% MDCK-MDR transport (apical to basal) (MDCK-MDR)	other results
Cc1c(C(=O)NCC2CCC(CNS(C)(=O)=O)CC2)nn(-c2ccc(Cl)cc2Cl)c1-c1ccc(Cl)cc1 (mixture of isomers)	–	–	–	–	–	Ki (CB1 [1]; Table 3, radioligand [3H]SR141716, read-out: Ki(μM) CB1 SR141716): 0.008 µM; Ki (CB1 [2]; Table 3, radioligand [3H]CP55940, read-out: Ki(μM) CB1 CP55940): 0.036 µM; Ki (CB2; Table 3, radioligand [3H]CP55940, read-out: Ki(μM) CB2 CP55940): 0.96 µM
Cc1c(C(=O)N2CCC(C(N)=O)(c3ccccc3)CC2)nn(-c2ccc(Cl)cc2Cl)c1-c1ccc(Br)cc1 [Br, phenyl, CONH2, 1-{[5-(4-bromophenyl)-1-(2,4-dichlorophenyl)-4-methyl-1H-pyrazol-3-yl]carbonyl}-4-phenylpiperidine-4-carboxamide]	0.00267 µM	226.3	0.0145 µM	3.28 µM	–	–
CCNC1(C(N)=O)CCN(C(=O)c2nn(-c3ccc(Cl)cc3Cl)c(-c3ccc(Cl)cc3)c2C)CC1 [Cl, NHC2H5, C(O)NH2, 1-{[5-(4-chlorophenyl)-1-(2,4-dichlorophenyl)-4-methyl-1H-pyrazol-3-yl]carbonyl}-4-(ethylamino)piperidine-4-carboxamide]	0.0346 µM	–	0.0784 µM	2.22 µM	–	–
Cc1c(C(=O)N2CCC(C(N)=O)(c3ccccc3)CC2)nn(-c2ccc(Cl)cc2Cl)c1-c1ccc(Cl)cc1 [Cl, phenyl, C(O)NH2, 1-{[5-(4-chlorophenyl)-1-(2,4-dichlorophenyl)-4-methyl-1H-pyrazol-3-yl]carbonyl}-4-phenylpiperidine-4-carboxamide]	0.00044 µM	1600.0	0.00344 µM	5.5 µM	8.1 ± 11.5%	Kb (CB1 [3]): 0.45 nM
Cc1c(C(=O)N2CCC(C(=O)NC(C)(C)C)(c3ccccc3)CC2)nn(-c2ccc(Cl)cc2Cl)c1-c1ccc(Cl)cc1 [Cl, phenyl, C(O)NH(t-butyl), N-(tert-butyl)-1-(5-(4-chlorophenyl)-1-(2,4-dichlorophenyl)-4-methyl-1H-pyrazole-3-carbonyl)-4-phenylpiperidine-4-carboxamide]	–	421.6	0.0199 µM	8.39 µM	<1%	–
Cc1c(C(=O)N2CCC(N)(c3ccccc3)CC2)nn(-c2ccc(Cl)cc2Cl)c1-c1ccc(Cl)cc1 [Cl, phenyl, NH2, 1-{[5-(4-chlorophenyl)-1-(2,4-dichlorophenyl)-4-methyl-1H-pyrazol-3-yl]carbonyl}-4-phenylpiperidin-4-amine]	0.0305 µM	10.8	0.104 µM	1.13 µM	–	Kb (CB1 [3]; [7]): 485 nM
CC(=O)NC1(c2ccccc2)CCN(C(=O)c2nn(-c3ccc(Cl)cc3Cl)c(-c3ccc(Cl)cc3)c2C)CC1 [Cl, phenyl, NHC(O)CH3, N-(1-{[5-(4-chlorophenyl)-1-(2,4-dichlorophenyl)-4-methyl-1H-pyrazol-3-yl]carbonyl}-4-phenylpiperidin-4-yl)acetamide]	0.0137 µM	3.4	0.0626 µM	0.214 µM	–	Kb (CB1 [3]; [7]): 201 nM
Cc1c(C(=O)N2CCC(NC(=O)NC(C)(C)C)(c3ccccc3)CC2)nn(-c2ccc(Cl)cc2Cl)c1-c1ccc(Cl)cc1 [Cl, phenyl, NHC(O)NH(t-butyl), 3-tert-butyl-1-(1-{[5-(4-chlorophenyl)-1-(2,4-dichlorophenyl)-4-methyl-1H-pyrazol-3-yl]carbonyl}-4-phenylpiperidin-4-yl)urea]	0.0181 µM	424.6	0.0471 µM	≥ 20 µM	<1%	–
CCCCNC(=O)NC1(c2ccccc2)CCN(C(=O)c2nn(-c3ccc(Cl)cc3Cl)c(-c3ccc(Cl)cc3)c2C)CC1 [Cl, phenyl, NHC(O)NHC4H9, 3-butyl-1-(1-{[5-(4-chlorophenyl)-1-(2,4-dichlorophenyl)-4-methyl-1H-pyrazol-3-yl]carbonyl}-4-phenylpiperidin-4-yl)urea]	–	178.1	0.0155 µM	2.76 µM	–	Kb (CB1 [3]; [7]): 0.41 nM
Cc1c(C(=O)N2CCC(NC(=O)NC(C)C)(c3ccccc3)CC2)nn(-c2ccc(Cl)cc2Cl)c1-c1ccc(Cl)cc1 [Cl, phenyl, NHC(O)NHCH(CH3)2, 1-(1-{[5-(4-chlorophenyl)-1-(2,4-dichlorophenyl)-4-methyl-1H-pyrazol-3-yl]carbonyl}-4-phenylpiperidin-4-yl)-3-(propan-2-yl)urea]	–	364.0	0.0135 µM	4.91 µM	<1%	–
Cc1c(C(=O)N2CCC(NC(=O)OC(C)(C)C)(c3ccccc3)CC2)nn(-c2ccc(Cl)cc2Cl)c1-c1ccc(Cl)cc1 [Cl, phenyl, NHC(O)O(t-butyl), tert-Butyl N-(1-{[5-(4-chlorophenyl)-1-(2,4-dichlorophenyl)-4-methyl-1H-pyrazol-3-yl]carbonyl}-4-phenylpiperidin-4-yl)carbamate]	0.00602 µM	48.9	0.0423 µM	2.11 µM	<1%	–
Cc1c(C(=O)N2CCC(NS(C)(=O)=O)(c3ccccc3)CC2)nn(-c2ccc(Cl)cc2Cl)c1-c1ccc(Cl)cc1 [Cl, phenyl, NHSO2CH3, N-(1-{[5-(4-chlorophenyl)-1-(2,4-dichlorophenyl)-4-methyl-1H-pyrazol-3-yl]carbonyl}-4-phenylpiperidin-4-yl)methanesulfonamide]	0.00328 µM	5.6	0.00727 µM	0.041 µM	3.14 ± 0.89%	–
Cc1c(C(=O)N2CCC(O)(c3ccccc3)CC2)nn(-c2ccc(Cl)cc2Cl)c1-c1ccc(Cl)cc1 [Cl, phenyl, OH, 1-{[5-(4-chlorophenyl)-1-(2,4-dichlorophenyl)-4-methyl-1H-pyrazol-3-yl]carbonyl}-4-hydroxy-4-phenylpiperidine]	0.00963 µM	12.3	0.0674 µM	0.831 µM	–	–
Cc1c(C(=O)N2CCC(O)(c3ccccc3)CC2)nn(-c2ccc(Cl)cc2Cl)c1-c1ccc(N(C)C)cc1 [N(CH3)2, phenyl, OH, 1-{[1-(2,4-dichlorophenyl)-5-[4-(dimethylamino)phenyl]-4-methyl-1H-pyrazol-3-yl]carbonyl}-4-phenylpiperidin-4-ol]	0.0725 µM	1.0	0.384 µM	0.4 µM	–	Kb (CB1 [3]; [7]): 679 nM
CCOC(=O)N1CCC(NC(=O)c2nn(-c3ccc(Cl)cc3Cl)c(-c3ccc(Cl)cc3)c2C)CC1 [OC2H5, Ethyl 4-[5-(4-Chlorophenyl)-1-(2,4-dichlorophenyl)-4-methyl-1H-pyrazole-3-amido]piperidine-1-carboxylate]	–	–	–	–	–	Kb (CB1 [3]): 28.6 nM; Binding Selectivity using CP55940 Displacement (CB1 [2]; Table 5): 551.1; Ki (CB1 [2]; Table 5, read-out: Ki (nM) v. [3H] CP55940 at CB1): 0.0146 µM; Ki (CB2; Table 5, read-out: Ki (nM) v. [3H] CP55940 at CB2): 8.07 µM
